The source of these data is ChEMBL document CHEMBL1949564, “Inhibitory activity of eudesmane sesquiterpenes from Alpinia oxyphylla on production of nitric oxide” (Bioorg Med Chem Lett, 2012).

Experiment [1] concerns RAW264.7. The experiment is described as follows: Antiinflammatory activity in mouse RAW264.7 cells assessed as inhibition of LPS-induced NO production after 5 mins by Greiss method. The format is functional, cell-based. The note with it: RAW264.7, 5 min.
In experiment [2] the test system is RAW264.7. Description: Antiinflammatory activity in mouse RAW264.7 cells assessed as inhibition of IFNgamma-induced NO production after 5 mins by Greiss method. The format is functional, cell-based. The note with it: RAW264.7, 5 min.

Values after ≈ are worked out from the molar mass of the structure shown. Residues, ends and D or L forms follow the SMILES beside them. *: point of attachment. Cbz = O=C(OCc1ccccc1)*

By IC50 is commonly meant the concentration needed to halve the response being measured. For `C=C(C)[C@]1(O)CC[C@]2(C)CC(=O)C=C(C)[C@H]2C1`, the IC50 in the experiment on RAW264.7 [1] and in the experiment on RAW264.7 [2] was 11.6 µg/mL (≈ 49.6 µM) each time.

Consider `C=C(C)[C@@H]1CC[C@@]2(C)CCC(=O)C(C)=C2[C@@H]1O`, for which the IC50 with RAW264.7 [1] and with RAW264.7 [2] was 12.5 µg/mL (≈ 53.4 µM) in each case.

In the case of `C=C(C)[C@]1(O)CC[C@@]2(C)CCC(=O)C(C)=C2C1`, the IC50 in the experiment with RAW264.7 [1] and with RAW264.7 [2] was 11.4 µg/mL (≈ 48.6 µM) each time.

For the compound `CC1=C2C[C@H](C(C)(O)CO)CC[C@@]2(C)CCC1=O` (stereo partly drawn), the IC50 in the experiment with RAW264.7 [1] and in the experiment on RAW264.7 [2] was 13.3 µg/mL (≈ 52.6 µM) in each case.

`C=C(C)[C@@H]1CC[C@@]2(C)[C@H](O)CC[C@](C)(O)[C@@H]2C1` (racemic): the IC50 with RAW264.7 [1] and with RAW264.7 [2] was 13.5 µg/mL (≈ 56.8 µM) throughout.

As for `C=C1[C@@H](O)CC[C@]2(C)CC[C@](O)(C(=C)C)C[C@@H]12` (relative stereo), the IC50 in the experiment with RAW264.7 [1] and in the experiment on RAW264.7 [2] was 13.5 µg/mL (≈ 57.2 µM) throughout.

In the case of `C=C(C)[C@@H]1CC[C@]2(C)C(=C(C)C(=O)C[C@H]2O)C1` [LIGUCYPERONOL], the IC50 with RAW264.7 [1] and in the experiment with RAW264.7 [2] was 12.1 µg/mL (≈ 51.8 µM) each time.

As to `CC(C)C[C@@H](C=O)NC(=O)[C@H](CC(C)C)NC(=O)[C@H](CC(C)C)NC(=O)OCc1ccccc1` [MG-132] (Cbz-Leu-Leu-Leu-aldehyde), the IC50 in the experiment with RAW264.7 [1] and with RAW264.7 [2] was 0.17 µg/mL (≈ 0.357 µM) throughout.

As to `CC(=O)[C@]12CC[C@@]3(C)CCC(=O)C(C)=C3[C@H]1O2` [OXYPHYLLANENE C], the IC50 in the experiment on RAW264.7 [1] and in the experiment on RAW264.7 [2] was 11 µg/mL (≈ 47 µM) in each case.

For the compound `C=C(C)[C@]1(O)CC[C@@]2(C)CCC(=O)[C@@]3(C)O[C@@]23C1` [OXYPHYLLANENE D], the IC50 with RAW264.7 [1] and in the experiment with RAW264.7 [2] was 9.85 µg/mL (≈ 39.3 µM) throughout.

For the compound `CC1=C2C=C(C(C)(O)CO)CC[C@]2(C)CCC1=O` (stereo partly drawn) [OXYPHYLLANENE F], the IC50 in the experiment on RAW264.7 [1] and in the experiment with RAW264.7 [2] was 13.9 µg/mL (≈ 55.7 µM) each time.

Consider `C[C@@]12CCC(=O)C=C1[C@@](C)(O)[C@H](O)CC2` [OXYPHYLLENONE A], for which the concentration for half-maximal inhibition (IC50) with RAW264.7 [1] and with RAW264.7 [2] was 12 µg/mL (≈ 57 µM) each time.

`C=C(C)[C@@]1(O)CC[C@]2(C)CC(=O)C=C(C)[C@H]2C1` [TEUCRENONE]: the IC50 in the experiment with RAW264.7 [1] and in the experiment on RAW264.7 [2] was 11.4 µg/mL (≈ 48.5 µM) each time.

On to `C[C@@]12CCC[C@](C)(O)C1=CC(=O)CC2` [TEUHETENONE A], for which the IC50 in the experiment on RAW264.7 [1] and in the experiment with RAW264.7 [2] was 12.9 µg/mL (≈ 66.6 µM) each time.
